#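 A five-concentration, 48-hour dose response in 96-well plates underlies each endpoint, interpolated linearly between surrounding concentrations. TGI denotes the concentration required for complete inhibition of growth.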
# Tests used:
# Assay in all cases: growth of human tumour cells (NCI), 48 h
# NCI-H226 lung = test system: NCI-H226 lung
# HCT-15 colon = test system: HCT-15 colon
# SNB-75 CNS = test system: SNB-75 CNS
# SF-268 CNS = test system: SF-268 CNS
# SK-OV-3 ovarian = test system: SK-OV-3 ovarian
# UACC-62 melanoma = test system: UACC-62 melanoma
# HCT-116 colon = test system: HCT-116 colon
# RXF 393 renal = test system: RXF 393 renal
# SK-MEL-2 melanoma = test system: SK-MEL-2 melanoma
# UO-31 renal = test system: UO-31 renal
# IGROV1 ovarian = test system: IGROV1 ovarian
# A498 renal = test system: A498 renal
# MCF7 breast = test system: MCF7 breast
# DU-145 prostate = test system: DU-145 prostate
# CAKI-1 renal = test system: CAKI-1 renal
# SW-620 colon = test system: SW-620 colon
# PC-3 prostate = test system: PC-3 prostate
# T-47D breast = test system: T-47D breast
# HOP-62 NSCLC = test system: HOP-62 NSCLC
SMILES,TGI (NCI-H226 lung) [µM],TGI (HCT-15 colon) [µM],TGI (SNB-75 CNS) [µM],TGI (SF-268 CNS) [µM],TGI (SK-OV-3 ovarian) [µM],TGI (UACC-62 melanoma) [µM],TGI (HCT-116 colon) [µM],TGI (RXF 393 renal) [µM],TGI (SK-MEL-2 melanoma) [µM],TGI (UO-31 renal) [µM],TGI (IGROV1 ovarian) [µM],TGI (A498 renal) [µM],TGI (MCF7 breast) [µM],TGI (DU-145 prostate) [µM],TGI (CAKI-1 renal) [µM],TGI (SW-620 colon) [µM],TGI (PC-3 prostate) [µM],TGI (T-47D breast) [µM],TGI (HOP-62 NSCLC) [µM]
CC(Oc1ccc(OCC2CCCCC2)cc1)C(=O)OCC(=O)c1ccc(-c2ccccc2)cc1 (stereo unspecified),> 100,> 100,> 100,> 100,> 100,> 100,> 100,> 100,> 100,> 100,> 100,> 100,,,,,,,
[N-]=[N+]=NCc1nc(N)c2c3c(sc2n1)CCCC3,5.97,11.4,20.9,6.23,24.1,23.6,12,19.3,27.9,0.227,2.92,45,16.3,13.2,8.32,> 100,6.72,63.3,18.3
Cn1c2ccccc2c2ncc3[nH]c4ccccc4c3c21,51.8,63.7,35.6,61.8,80.8,41.7,26,30.6,> 100,26.9,58.2,36.7,,,68.8,71,,,> 100
Cn1c2c(c3ccccc31)CCN1C(=O)CN(C(=O)C3CCCCC3)CC21 (stereo unspecified),> 100,> 100,> 100,> 100,> 100,> 100,> 100,> 100,> 100,> 100,> 100,,> 100,> 100,,> 100,> 100,> 100,> 100
C=CN1C(=O)[C@H](Oc2ccccc2)[C@@H]1c1ccccc1,> 100,> 100,61.8,> 100,78.8,,> 100,52.5,> 100,> 100,> 100,> 100,,,,> 100,,,92.2
COC(=O)C(C(=O)Cc1ccccc1[N+](=O)[O-])C(=O)OC,> 100,> 100,> 100,> 100,> 100,> 100,> 100,> 100,> 100,> 100,> 100,,,,> 100,> 100,,,> 100
O=S(=O)(c1ccccc1)N1N=C2c3ccccc3CCC[C@H]2C1c1ccccc1 (stereo partly specified),> 100,> 100,> 100,> 100,> 100,> 100,> 100,> 100,> 100,> 100,> 100,> 100,,,> 100,> 100,,,> 100
CCOC(=O)c1sc2c(c1OC(=O)c1ccc(OC)cc1)c(=O)n(-c1ccccc1)c(=S)n2-c1ccccc1,73,> 100,> 100,> 100,> 100,> 100,> 100,> 100,,,> 100,41.4,> 100,> 100,> 100,> 100,> 100,> 100,> 100
CC(C)=CC1CC(=[N+]=[N-])C(=O)C1(C)C (stereo unspecified),> 100,> 100,> 86.5,> 100,> 100,> 100,> 100,> 31.6,> 100,> 100,> 100,> 100,,,> 100,> 100,,,> 100
COc1cccc(C2CC23C(=O)NC(=O)NC3=O)c1 (stereo unspecified),> 100,> 100,,> 100,> 100,> 100,> 100,,> 100,> 100,> 100,> 100,,,> 100,> 100,,,> 100
CC1CN=C(N(C(=O)Nc2ccc(Cl)c(Cl)c2)c2ccccc2)S1 (stereo unspecified),,> 100,> 100,> 100,,,> 100,,97.1,> 100,> 100,> 100,> 100,> 100,> 100,> 100,> 100,> 100,> 100
CC(=O)NC1=N/C(=C\c2ccc(Cl)cc2)C(=O)N1/C=C1\C(=O)Oc2ccccc2C1=O,> 100,> 100,> 100,> 100,> 100,> 100,> 100,> 100,> 100,,> 100,57.8,> 100,> 100,> 100,> 100,> 100,> 100,> 100
Cc1nn(C(=O)CC(=O)Nc2ccc(Cl)cc2)c(C)c1N=Nc1ccccc1C(=O)O,,> 100,> 100,> 100,> 100,> 100,> 100,,> 100,> 100,> 100,> 100,,,> 100,> 100,,,> 100
CS(=O)(=O)c1ccc(-c2cc(-c3ccc(S(C)(=O)=O)cc3)[n+](-c3cc(-c4ccccc4)c([O-])c(-c4ccccc4)c3)c(-c3ccc(S(C)(=O)=O)cc3)c2)cc1,> 100,> 100,,> 100,,> 100,> 100,> 100,> 100,> 100,> 100,> 100,,,> 100,> 100,,,> 100
CC1(C)CC(=O)CC(=Nc2ccc([N+](=O)[O-])cc2)C1,> 100,> 100,> 100,> 100,> 100,> 100,40.9,> 100,> 100,> 100,> 100,> 100,,,,,,,> 100
CN(CCN(C)C(=O)CCn1cc(F)c(=O)[nH]c1=O)C(=O)CCn1cc(F)c(=O)[nH]c1=O,> 100,> 100,> 100,> 100,,> 100,> 100,> 100,> 100,> 100,> 100,,,,,> 100,,,> 100

SMILES,TGI (NCI-H226 lung) [µM],TGI (HCT-15 colon) [µM],TGI (SNB-75 CNS) [µM],TGI (SF-268 CNS) [µM],TGI (SK-OV-3 ovarian) [µM],TGI (UACC-62 melanoma) [µM],TGI (HCT-116 colon) [µM],TGI (RXF 393 renal) [µM],TGI (SK-MEL-2 melanoma) [µM],TGI (UO-31 renal) [µM],TGI (IGROV1 ovarian) [µM],TGI (A498 renal) [µM],TGI (MCF7 breast) [µM],TGI (DU-145 prostate) [µM],TGI (CAKI-1 renal) [µM],TGI (SW-620 colon) [µM],TGI (PC-3 prostate) [µM],TGI (T-47D breast) [µM],TGI (HOP-62 NSCLC) [µM]
CCOC(=O)/C(=C/c1ccc(N(C)C)cc1)N(CC)CC,94.2,> 100,,> 100,> 100,> 100,> 100,,> 100,> 100,> 100,,,,> 100,> 100,,,> 100
COc1cccc(C2c3cc4c(cc3OC(C)(N3CCCC3)C2C)OCO4)c1 (stereo unspecified),27.3,44.2,26.5,> 100,41.5,23.6,26.6,51.9,11.2,39.9,37.9,85.3,45.7,49.6,59.8,> 100,62.2,64,20.6
COC(=O)[C@@]1(C)/C(=N/NS(=O)(=O)c2ccc(C)cc2)CCC[C@@H]1C,> 100,31.9,> 100,> 100,> 100,> 100,> 100,> 100,> 100,> 100,> 100,> 100,,,> 100,,,,> 100
Cc1ccc(NC(=O)CCc2nnc(N)o2)cc1,> 100,> 100,> 100,> 100,> 100,> 100,> 100,> 100,> 100,> 100,> 100,> 100,,,> 100,> 100,,,> 100
Cc1cc(C(F)(F)F)cc(-n2nc(NS(=O)(=O)c3cc(C)c(Cl)cc3S)nc2N)n1,> 100,> 100,> 100,> 100,> 100,> 100,> 100,> 100,> 100,,> 100,56.1,> 100,,> 100,> 100,> 100,> 100,> 100
C=C(C)C1CCC2(C)CC1c1c(c(C)cc3c1[nH]c1ccccc13)O2 (stereo unspecified),> 25,> 25,,> 25,> 25,> 25,> 25,,> 25,> 25,> 25,,,,,> 25,,,> 25
CCOC1c2cc(C(C)C)c(O)c(O)c2[C@@]23CCCC(C)(C)C2C1OC3=O (stereo partly specified),> 100,> 100,> 100,> 100,> 100,> 100,> 100,> 100,> 100,> 100,> 100,,,,> 100,> 100,,,> 100
CCCCC/C=C1\CCC(CN(C)C)C1=O (stereo unspecified),29.5,10,32.3,41.4,27.4,29.4,25,,34.7,31.4,32.6,,,,18.4,11.7,,,31.7
COc1ccc(OC)c(/C=C(/C#N)c2ccccc2)c1,> 100,> 100,32.8,> 100,> 100,35.8,> 100,38.7,54.7,,> 100,83.8,,,> 100,> 100,,,> 100
C[N+](C)(C)CC1CCC/C1=N\OC(=O)c1ccccc1 (stereo unspecified),> 100,> 100,> 100,> 100,> 100,> 100,> 100,> 100,> 100,> 100,> 100,> 100,,,,> 100,,,> 100
Cn1cnnc1Sc1c([N+](=O)[O-])ncn1C,> 100,,> 100,> 100,> 100,> 100,> 100,,> 100,> 100,> 100,> 100,,,> 100,> 100,,,> 100
CN(C)CCNC(=O)c1cccc2c(Nc3ccc(S(=O)(=O)N=C(N)N)cc3)c3ccccc3nc12,10.1,> 100,43.8,26.6,,22.8,> 100,> 100,38.5,48.6,45,,,,,> 100,,,39.2
O=[N+]([O-])c1ccc(-c2cnc3ccccn23)cc1,> 100,> 100,92,> 100,> 100,> 100,> 100,> 100,> 100,> 100,,> 100,,,> 100,> 100,,,> 100
O=C(CC(C(=O)c1ccsc1)c1ccccc1)c1ccccc1 (stereo unspecified),> 100,> 100,> 100,> 100,> 100,> 100,> 100,> 100,,> 100,> 100,> 100,> 100,> 100,> 100,> 100,,> 100,> 100
CN(C)/N=C1/CCC(C(F)(F)F)(C(F)(F)F)O1,84,> 100,97.5,> 100,> 100,68.8,94,> 100,90.6,98.2,82.7,53.1,,> 100,> 100,> 100,> 100,> 100,85
